Measurements reported in patent US11649238B2, “Substituted pyrazolo[1,5-a]pyrimidines as PI4K inhibitors” (GLAXOSMITHKLINE INTELLECTUAL PROPERTY DEVELOPMENT LIMITED, priority 2018, dated 2023).

Experiments:
[1] = Human Microsomal Metabolic Stability Assay; type: in vitro ADME; conditions: 0.5 μM test compound, 0.5 mg/mL microsomal protein, 45 min
Procedure: d) Human Microsomal Metabolic Stability Assay Protocol Summary Test compound (0.5 μM) was incubated with pooled liver microsomes. Test compound was incubated over the course of a 45 min experiment and the test compound was analysed by LC-MS/MS. Experimental Procedure Pooled human liver microsomes were purchased from a reputable commercial supplier, for example Corning Life Sciences. Microsomes (final protein concentration 0.5 mg/mL), 50 mM phosphate buffer pH7.4 and NADPH (final concentration=1 mM) were pre-incubated at 37° C. prior to the addition of test compound (final substrate concentration=0.5 μM; final DMSO concentration=0.25%) to initiate the reaction. The final incubation volume was 500 μL. A control incubation was included for each compound tested where 50 mM phosphate buffer pH7.4 was added instead of NADPH (minus NADPH). Two control compounds were included with each species. All incubations are performed singularly for each test compound. Each compound was incubated for 45 minutes and samples (50 μL) of incubate were taken at 0, 5, 15, 30 and 45 min. The control (minus NADPH) was sampled at 45 min only. The reactions were stopped by the addition of 100 μL acetonitrile containing internal standard to the sample. The terminated samples were centrifuged at 2,500 rpm for 20 min at 4° C. to precipitate the protein. Quantitative Analysis Following protein precipitation, the samples were analysed using generic LC-MS/MS conditions. Data Analysis From a plot of In peak area ratio (compound peak area/internal standard peak area) against time, the gradient of the line was determined. Subsequently, intrinsic clearance was calculated using the equations below, then converted to mL/min/g: Elimination rate constant (k)=(−gradient) Half life (t½) (min)=0.693+k Intrinsic Clearance (CLint) (μL/min/mg protein)=(V×0.693)+t1/2 where V=Incubation volume μL/mg microsomal protein.

[2] = system: human rhinovirus Type A Strain 16 (HRVA16) in HeLa Ohio cells; assay: Cytopathic Effect (CPE) Assay, ATP-depletion in infected HeLa Ohio cells; type: cell-based; conditions: HRVA16 at MOI of 1, 33° C. for 2 days, CellTiter-Glo
Procedure: c) Cytopathic Effect (CPE) Assay Protocol
The in vitro inhibition of PI4 KB activity was determined by analysis of the inhibition of ATP-depletion in HeLa Ohio cells in response to infection with human rhinovirus Type A Strain 16 (HRVA16). ATP levels were determined using CellTiter-GLO reagent from Promega. Compounds that inhibit PI4 KB are also potent inhibitors of human rhinoviruses and are able to protect HeLa Ohio cells from CPE induced by viral infection and replication. Protected cells remain viable following viral infection and therefore have greater ATP levels.
Compounds were dissolved in 100% DMSO to a concentration of 3 mM and subsequent dilutions were prepared in 100% DMSO using a 1:3 serial step dilution. A 0.5 μL stamp from an 10-point titration was transferred to a white 96 well Greiner tissue culture flat bottom plate (655083). A 0.5 μL stamp of 100% DMSO was stamped into columns 11 and 12 of the plate, ensuring a final assay DMSO concentration of 0.33% across the plate and a compound top final assay concentration of 10 μM.
HeLa Ohio cells were cultured at 37° C., 5% CO2 in media (DMEM supplemented with 10% Australian origin foetal bovine serum and 2 mM glutamax). Cells were passaged when confluency reached >80%. For the assay, cells were grown to 80-90% confluency before detachment.
Cells were detached for the assay by washing with PBS and detached using 3 mL TrypLE Express for […] at 37° C. Detached cells were mixed with 7 mL of media and centrifuged at 300 g for 5 min. The cell pellet was resuspended in 50 mL media and counted on a Beckman Coulter ViCell. Cells were diluted to 6.6×10^4 cells/mL and some of the cell volume was removed into a new tube to be used as a column 12 control. HRVA16 stock was added to the remaining cell suspension at the appropriate dilution for the virus stock to achieve an MOI of 1.
150 μL of the cell+virus suspension was added per well to columns 1-11 using a Multidrop Combi. 150 μL of the separate cell suspension was added per well to columns 12 using a multichannel pipette. Assay plates were sealed and incubated at 33° C., 5% CO2 for 2 days. After 2 days, assay plates were removed from the incubator and allowed to equilibrate to room temperature. 60 μL of CellTiter-Glo reagent was added to all wells using a Thermo Scientific Multidrop Combi. Plates were incubated at room temperature for 20 min before reading on an a Perkin Elmer Envision (Settings: Gripper height 2.5, Fixed measurement height (mm) 6.5, Distance between plate and detector 0, Measurement time (s) 0.1, Glow (ct2) correction factor (0%)).
The inhibitory effect of the compounds on the PI4 KB activity was evaluated by the IC50 of the response relative to the high (no virus, column 12) and low (virus+no inhibitor, column 11) controls by fitting to a four parameter dose response equation.

[3] = Spleen Concentration Assay; type: in vivo; conditions: male, Wistar Han, rat, intravenous, 1 mg/kg, intravenous infusion 1 mg/kg over 1 h, single male Wistar Han rat, 12 hours after the start of dosing
Procedure: e) Spleen Concentration Assay Compounds 17, 18, 19, 22 and 23 were tested in this spleen accumulation assay. Compounds were administered intravenously to rats to determine what the level of the compound in the spleen would be if all of the inhaled dose was absorbed (either orally or through the lungs) and systemic circulation was exposed to the full dose. Compounds 17, 19, 22 and 23 were formulated in 2% DMSO in Kleptose (aq, 10% w/v). Compound 18 was formulated in a 5:45:50 ratio of DMSO:PEG200:water. Formulations were administered as intravenous infusions (1 mg/kg over 1 h) to a single male, Wistar Han rat. 12 hours after the start of dosing, rats were euthanised and spleens were collected. Approximately 0.5 g samples of spleen were taken and homogenised in 4 mL water. 100 μL of the resulting homogenates were prepared by protein precipitation with 300 μL of acetonitrile containing an internal standard and assayed (along with calibration standards prepared in the same manner) by reversed-phase liquid chromatography-mass spectrometry, using a heated electrospray source and operated in the positive ion multiple reaction monitoring mode. The liquid chromatography column used was a Waters Cortecs C18 2.7 μm particle size, 50×2.1 mm column at 60° C., and the mobile phase, operated as a gradient, utilised (A) 0.1% formic acid (aq) and (B) 0.1% formic acid in acetonitrile, operated at a flow rate of 1 mL/min.

| Compound | intrinsic clearance [1] | mean pIC50 [2] | concentration at 12 h [3] |
| --- | --- | --- | --- |
| COc1ccc(-c2c(C)nn3c(NCc4cccc(-c5nccn5C)c4)cc(C(C)(C)O)nc23)cc1C(=O)N(C)C1CCOCC1 [Compound 21, 5-(5-(2-Hydroxypropan-2-yl)-2-methyl-7-((3-(1-methyl-1H-imidazol-2-yl)benzyl)amino)pyrazolo[1,5-a]pyrimidin-3-yl)-2-methoxy-N-methyl-N-(tetrahydro-2H-pyran-4-yl)benzamide] | 34.0 mL/min/g | 8.8 | – |
| Cc1ccc(-c2c(C)nn3c(NCc4cccc(-c5nccn5C)c4)cc(C(C)(C)O)nc23)cc1C(=O)N(C)CCCO [Compound 17, 5-(5-(2-Hydroxypropan-2-yl)-2-methyl-7-((3-(1-methyl-1H-imidazol-2-yl)benzyl)amino)pyrazolo[1,5-a]pyrimidin-3-yl)-N-(3-hydroxypropyl)-N,2-dimethylbenzamide] | 28.9 mL/min/g | 8.9 | – |
| CCN(CCO)C(=O)c1cc(-c2c(C)nn3c(NCc4cccc(-c5nccn5C)c4)cc(C(C)(C)O)nc23)ccc1OC [Compound 19, N-ethyl-N-(2-hydroxyethyl)-5-(5-(2-hydroxypropan-2-yl)-2-methyl-7-((3-(1-methyl-1H-imidazol-2-yl)benzyl)amino)pyrazolo[1,5-a]pyrimidin-3-yl)-2-methoxybenzamide] | 11.6 mL/min/g | 8.9 | < 7 ng/g |
| Cc1ccc(-c2c(C)nn3c(NCc4cccc(-c5nccn5C)c4)cc(C(C)(C)O)nc23)cc1C(=O)N(C)[C@@H](C)CO [Compound 22, (S)—N-(1-hydroxypropan-2-yl)-5-(5-(2-hydroxypropan-2-yl)-2-methyl-7-((3-(1-methyl-1H-imidazol-2-yl)benzyl)amino)pyrazolo[1,5-a]pyrimidin-3-yl)-N,2-dimethylbenzamide] | 33.7 mL/min/g | at least 9.1 | < 7 ng/g |
